The source made the active and inactive calls.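 Rule for the calls: active = maximal percent inhibition of the deubiquitinase OTUD3 of at least 30% across the tested doses; inactive = the rest.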
The compounds below were run against OTU domain-containing protein 3 (Homo sapiens) (UniProt Q5T2D3) (assay: Validation of screening hits, potency titration, in vitro enzymatic, OTU domain-containing protein 3 DUB inhibitors (AID 1645868)). Details: purified OTUD3, ubiquitin-rhodamine cleavage fluorescence, 2 h.
OTU domain-containing protein 3 (Homo sapiens), sequence (Q5T2D3 whole entry, looked up, the tested form may be a part): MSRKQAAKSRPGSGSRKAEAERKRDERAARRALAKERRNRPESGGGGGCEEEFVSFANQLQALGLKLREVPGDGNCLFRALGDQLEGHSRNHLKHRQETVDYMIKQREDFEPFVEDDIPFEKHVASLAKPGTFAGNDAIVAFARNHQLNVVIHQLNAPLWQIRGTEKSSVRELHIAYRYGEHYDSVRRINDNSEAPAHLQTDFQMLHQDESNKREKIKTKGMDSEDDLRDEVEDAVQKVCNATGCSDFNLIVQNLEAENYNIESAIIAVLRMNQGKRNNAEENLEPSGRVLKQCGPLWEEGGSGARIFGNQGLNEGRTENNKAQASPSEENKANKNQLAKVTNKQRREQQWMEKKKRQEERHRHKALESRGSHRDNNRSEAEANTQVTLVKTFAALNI

Row | Structure (SMILES) | IC50
1 | Cc1ccc2c(c1)-c1c(c(C(=O)N3CCN(c4ccccc4)CC3)nn1C)CS2 | > 50 µM (inactive)
2 | Cc1ccc(/C=C/C(=O)Nc2ccc3c(c2)OCCO3)cc1 | > 50 µM (inactive)
3 | COc1ccc(C(=O)N2CCCC3(C2)Nc2cccnc2NC3=NC2CCCC2)cn1 (stereo unspecified) | > 50 µM (inactive)
4 | Cc1ccc2c(=O)c3c([nH]c2c1C)CCN(CC(=O)NCc1ccc2c(c1)OCO2)C3 | > 50 µM (inactive)
5 | CCC(C(=O)NCc1ccncc1)N(c1cccc(Cl)c1)S(C)(=O)=O (stereo unspecified) | > 50 µM (inactive)
6 | O=C(Cn1c(=O)c2sccc2n(Cc2ccc([N+](=O)[O-])cc2)c1=O)NCCc1ccccc1 | 22.4 µM
7 | CC(C)NS(=O)(=O)c1ccc(OCC(=O)N2CCC(Cc3ccccc3)CC2)cc1 | > 50 µM (inactive)
8 | CC1(C)CC(=O)C2=C(C1)Nc1ccccc1N(C(=O)C(F)(F)F)C2c1cccs1 (stereo unspecified) | > 50 µM (inactive)
9 | O=C(COc1ccc(F)cc1)Nc1cc(F)c2nc(N3CCOCC3)ccc2c1 | > 50 µM (inactive)
10 | COc1cc(Cl)ccc1Oc1ncnc2sc(C)c(C)c12 | > 50 µM (inactive)
11 | Cn1c(CN2CCCCCC2)nc2cc(NC(=O)c3ccccc3)ccc21 | > 50 µM (inactive)
12 | Cc1cc2nc(/C=C/c3ccccc3)n(Cc3cccc(F)c3)c2cc1C | > 50 µM (inactive)
13 | O=C(NC1CCS(=O)(=O)C1)c1ccc(N2CCC(Cc3ccccc3)CC2)nn1 (stereo unspecified) | > 50 µM (inactive)
14 | CNC(=O)c1cc2nc(N(C)C)n(-c3ccccc3)c2s1 | > 50 µM (inactive)
15 | O=C(COC(=O)c1ccc(NS(=O)(=O)c2ccc3c(c2)OCCO3)cc1)NCc1ccc(Cl)cc1 | > 50 µM (inactive)
16 | O=C(COc1ccc(Cl)cc1)N1CCc2cc3ccccc3nc21 | > 50 µM (inactive)
17 | COc1ccc(C(=O)Nc2ccc3c(c2)Sc2ncccc2C(=O)N3C)cn1 | > 50 µM (inactive)
18 | Cc1ccc(Nc2nc(NCCc3ccccc3)nc3c2cnn3C)cc1 | > 50 µM (inactive)
19 | COc1ccc(NC(=O)c2cc(-c3cccnc3)n[nH]2)cc1Cl | 17.8 µM
20 | CN1C(=O)COc2ccc(NC(=O)c3cc(-c4ccccc4)on3)cc21 | > 50 µM (inactive)
21 | O=C(CCc1ccc(S(=O)(=O)N2CCOCC2)cc1)Nc1ccc2c(c1)OCCO2 | > 50 µM (inactive)
22 | COc1cc(C2SCC(=O)Nc3c2c(-c2ccccc2)nn3-c2ccccc2)cc(OC)c1OC (stereo unspecified) | > 50 µM (inactive)
23 | CCCc1cc(=O)oc2cc(OCC(=O)NCc3ccc(OC)cc3)ccc12 | 36.2 µM

Row | Structure (SMILES) | IC50
24 | COc1ccc2[nH]cc(S(=O)(=O)c3ccc(C)c(F)c3)c(=O)c2c1 | 44.5 µM
25 | Cc1nn(C)c2c1[C@@H](c1ccc(F)c(Br)c1)[C@H](NC(=O)c1ccccc1)C(=O)N2 | > 50 µM (inactive)
26 | Cc1nc2c3ccccc3nc(NCc3ccc4c(c3)OCO4)n2n1 | > 50 µM (inactive)
27 | Cc1ccc(C2=Nc3ccccc3N(CC(=O)Nc3cccc(C)c3C)C(=O)C2)cc1C | > 50 µM (inactive)
28 | CC(=O)Nc1ccc(-n2cnc(C(=O)NC(C)c3ccccc3)c2)nc1 (stereo unspecified) | > 50 µM (inactive)
29 | CCCn1cc(C(=O)N2CCC3(CC2)CC2(CO3)Nc3ccccc3-n3cccc32)c(C)n1 (stereo unspecified) | > 50 µM (inactive)
30 | COc1cc2c(cc1OC)-c1cc(Nc3ccc(Br)cc3)nc(=O)n1CC2 | 8.29 µM
31 | COc1ccc(CC(=O)Nc2nc(-c3ccco3)c(-c3ccco3)s2)cc1 | > 50 µM (inactive)
32 | COc1ccc(NC(=O)c2ccccc2OCC(=O)Nc2ccccc2C(F)(F)F)c(C)c1 | 29.8 µM
33 | Cc1ccc2[nH]c3c(=O)n(CC4CCCO4)cnc3c2c1 (stereo unspecified) | 44.9 µM
34 | COc1ccccc1NC(=O)c1cc(-c2ccccn2)nc2ccccc12 | 39.3 µM
35 | O=C(/C=C/c1ccc2c(c1)OCO2)Nc1nc2c(s1)COCC2 | > 50 µM (inactive)
36 | Cc1cccc(C(=O)N2CCN3Cc4ccccc4N(C)CC3C2)c1 (stereo unspecified) | > 50 µM (inactive)
37 | CN(C)S(=O)(=O)c1ccc(N2CCCC2)c(C(=O)Nc2ccc(-c3cn4ccsc4n3)cc2)c1 | > 50 µM (inactive)
38 | Cc1cnnn1-c1ccc(C(=O)Nc2ccc(Cl)cc2)cc1 | > 50 µM (inactive)
39 | CCNc1oc(-c2ccc(S(=O)(=O)N3CCCCC3)cc2)nc1C#N | > 50 µM (inactive)
40 | CCCc1nc2c(sc3nc4c(cc32)COC(C)(C)C4)c(=O)n1CC(=O)Nc1ccccc1C | 30 µM
41 | O=C1COc2ccc(NC(=O)c3cnn(Cc4ccccc4)c3)cc2N1 | > 50 µM (inactive)
42 | CCN(CC)C(=O)CN1CCCC(c2ncncc2-c2cc(C)no2)C1 (stereo unspecified) | > 50 µM (inactive)
43 | COc1ccc(NC(=O)Cn2c(CS(=O)(=O)c3ccc(C)cc3)nc3ccccc32)cc1 | 25.7 µM
44 | Cc1ccc(NC(=O)CCC(=O)Nc2ccc3nc(N4CCCCC4)cc(C)c3c2)c(Br)c1 | 49.8 µM
45 | O=C(NCc1ccccc1)c1ccc(-c2ccc(N3CCCC3)nn2)cc1 | > 50 µM (inactive)
46 | CCN(c1ccccc1)S(=O)(=O)c1ccc(C(=O)Nc2nc3ccc(F)cc3s2)cc1 | > 50 µM (inactive)

Row | Structure (SMILES) | IC50
47 | CC1CCN(C(=O)c2cn(-c3cc(N4CCC(C)CC4)ncn3)cn2)CC1 | > 50 µM (inactive)
48 | CC1(C)CC(n2[nH]c(=O)c3c2NC(=O)CSC3c2ccc(OCc3ccccc3)cc2)CCO1 (stereo unspecified) | 22.4 µM
49 | COc1cccc(-n2cnc3cc(C(=O)NC4CC4)ccc3c2=O)c1 | > 50 µM (inactive)
50 | Cc1cnc(CN2CCCC(c3ccc4cn[nH]c4n3)C2)cn1 (stereo unspecified) | > 50 µM (inactive)
51 | Cc1nc2cc(C(=O)NCCC3=CCCCC3)ccc2n1-c1cccc(F)c1 | > 50 µM (inactive)
52 | O=C(CN1C(=O)C2CCCC2=Nc2ccccc21)Nc1cc(F)ccc1F (stereo unspecified) | 19 µM
53 | O=c1c2cnc3nc(-c4cccnc4)nn3c2ccn1CCc1ccccc1 | > 50 µM (inactive)
54 | Cc1cc(=O)c2c(O)oc(O)c3c(O)cc(=O)c1c32 | 33.9 µM
55 | O=S1(=O)CCN(Cc2c(F)cccc2F)c2c(F)nc(N3CCOCC3)c(F)c21 | > 50 µM (inactive)
56 | O=C(c1ccco1)N1CCCC2(C1)Nc1cccnc1NC2=NC1CCCC1 (stereo unspecified) | > 50 µM (inactive)
57 | CC(=O)Nc1ccc(S(=O)(=O)NCc2ccc(C(=O)NCc3ccc(C)cc3)cc2)cc1 | 25.2 µM
58 | CC(C)C1Cc2c(sc3nc(SCC(=O)Nc4cccc5ccccc45)nc(N)c23)CO1 (stereo unspecified) | > 50 µM (inactive)
59 | CCOc1ccccc1NC(=O)COc1cc(OC)ccc1C(=O)c1ccccc1 | > 5 µM (inactive)
60 | Cn1ccnc1CN1C[C@H]2CCN(c3ncccn3)C[C@H]2C1 | > 50 µM (inactive)
61 | CC(=O)c1cccc(NC(=O)c2ccc(CN(c3ccc(C)c(C)c3)S(C)(=O)=O)cc2)c1 | > 50 µM (inactive)
62 | NC(=O)C1(N2CCCCC2)CCN(C(=O)c2[nH]nc3c2CCc2ccccc2-3)CC1 | > 50 µM (inactive)
63 | Cc1csc2ncc(C(=O)N3CCN(c4ccccc4F)CC3)c(=O)n12 | > 50 µM (inactive)
64 | CO/C1=C\C(C)=C/[C@@H](C)[C@@H](O)[C@@H](C)C/C(C)=C/C=C/[C@H](OC)[C@@H]([C@@H](C)[C@@H](O)[C@H](C)[C@@]2(O)C[C@@H](OC(=O)/C=C/C(N)=O)[C@H](C)[C@@H](C(C)C)O2)OC1=O | > 50 µM (inactive)
65 | CCCc1nc2sc3c(NCCN4CCOCC4)ncnc3c2c2c1CCC2 | > 50 µM (inactive)
66 | CCOC(=O)c1cccc(NC(=O)Nc2cccn3nc(C)nc23)c1 | > 50 µM (inactive)
67 | CN1CCN(C(=O)c2cc(-c3ccn(-c4ccccc4)n3)n3ccccc23)CC1 | > 50 µM (inactive)
68 | O=C(Nc1cccc(F)c1)C1CCCN(S(=O)(=O)N2CCCCCC2)C1 (stereo unspecified) | > 50 µM (inactive)
69 | CCOc1ccc(NC(=O)CSc2nc3n[nH]c(C)c3c(=N)n2-c2ccc(OC)cc2)cc1 | > 50 µM (inactive)

Row | Structure (SMILES) | IC50
70 | COc1ccc(NC(=O)Cn2cc(C(=O)c3ccc(F)cc3)c(=O)c3cc(C)ccc32)cc1 | 23.2 µM
71 | O=C(CNC(=O)c1cc2ccccc2[nH]1)Nc1ccc2c(c1)OCCO2 | > 50 µM (inactive)
72 | COc1cc(OC)c2c(c1)C(=O)C1=C(COC(C)(O)C1)C2=O (stereo unspecified) | > 50 µM (inactive)
73 | Cc1ccc(C)c(NS(=O)(=O)c2cc(-c3cnc(C4CC4)o3)ccc2C)c1 | > 50 µM (inactive)
74 | O=C(c1ccc2occc2c1)N1CCC(S(=O)(=O)c2ccc(-c3ccco3)cc2)CC1 | > 50 µM (inactive)
75 | C/C1=C/C=C/[C@H](C)[C@H](O)[C@@H](C)[C@@H](O)[C@@H](C)[C@H](O)[C@H](C)[C@@H](O)[C@@H](C)/C=C(/C)C(=O)c2c(O)c(C)cc3c2C(=O)C=C(NC1=O)C3=O | > 50 µM (inactive)
76 | CC(C)CC(=O)Nc1cc(F)c2nc(N3CCOCC3)ccc2c1 | > 50 µM (inactive)
77 | Cc1ccc2c(c1)c(=O)c(C(=O)c1ccc(F)cc1)cn2CC(=O)Nc1ccc2c(c1)OCCO2 | > 50 µM (inactive)
78 | O=C(Nc1ccccc1Cl)N(Cc1cc2cc3c(cc2[nH]c1=O)OCCO3)C1CCCCC1 | 40.6 µM
79 | COc1ccc(-c2nc(-c3nnn(Cc4ccc(F)cc4)c3C)no2)c(OC)c1 | 20.4 µM
80 | Cn1nc(-c2ccccc2)c(COC(=O)c2ccc([N+](=O)[O-])cc2)c1Cl | > 50 µM (inactive)
81 | O=C(c1cc(Cl)ccc1Cl)N1CCN(c2ccc3nnc(-c4ccco4)n3n2)CC1 | > 50 µM (inactive)
82 | O=C(Nc1cccc(-c2noc(C3CCC3)n2)c1)C1CC(=O)N(c2ccccc2)C1 (stereo unspecified) | 36.9 µM
83 | COc1ncccc1CN1CCn2c(Cn3cncn3)cnc2C1C (stereo unspecified) | > 50 µM (inactive)
84 | COc1ccc(OC)c(-c2cn3ccn(-c4ccc5c(c4)CCC5)c(=O)c3n2)c1 | > 50 µM (inactive)
85 | Cc1ccc(C2c3c(-c4ccccc4O)n[nH]c3C(=O)N2Cc2ccco2)cc1 (stereo unspecified) | 30.4 µM
86 | CN(CCc1ccccc1)c1nccc(N2CCN(C(=O)c3csc(-c4cccnc4)n3)CC2)n1 | > 50 µM (inactive)
87 | COCCn1c(=S)[nH]c2cc(C(=O)NCCSCc3ccccc3)ccc2c1=O | > 50 µM (inactive)
88 | COc1cc(C#N)c(NC(=NCc2ccc(F)cc2)SC)cc1OC | 49 µM
89 | CO[C@H]1[C@@H](O)[C@H](C)O[C@H](O[C@H]2[C@H](Oc3cccc4c(O)c5c(=O)oc6ccc(C)c7c(=O)oc(c34)c5c67)O[C@H](C)[C@H](O)[C@@H]2O)[C@@H]1O | > 50 µM (inactive)
90 | COc1cccc(/C=C/C(=O)Nc2ccc(N3CCOCC3)cc2)c1OC | > 50 µM (inactive)
91 | O=C(NC1CCCCC1)c1cc2c(cn1)[nH]c1ccccc12 | > 50 µM (inactive)

Source: PubChem BioAssay AID1645868 (Buhrlage Lab, Dana-Farber Cancer Institute and Novartis …, 2021)
